ChEMBL document CHEMBL3244332, “Studies on quinoline derivatives and related compounds. 5. Synthesis and antimicrobial activity of novel 1-alkoxy-1,4-dihydro-4-oxo-3-quinolinecarboxylic acids” (J Med Chem, 1977)
Values after ≈ are worked out from the molar mass of the structure shown.

Legend:
[1] = system: Klebsiella pneumoniae; test: microbe, parasite or virus in culture; format: functional; settings: PCI-602, 24 h
Description: Antibacterial activity against Klebsiella pneumoniae PCI-602 after 24 hrs by twofold dilution assay

[2] = system: Staphylococcus aureus; test: microbe, parasite or virus in culture; format: functional; settings: 209P, 24 h
Description: Antibacterial activity against Staphylococcus aureus 209P after 24 hrs by twofold dilution assay

[3] = system: Pseudomonas aeruginosa; test: microbe, parasite or virus in culture; format: functional; settings: Pseudomonas aeruginosa, 104, 24 h
Description: Antibacterial activity against Pseudomonas aeruginosa 104 after 24 hrs by twofold dilution assay

[4] = system: Escherichia coli; test: Antibacterial activity against Escherichia coli NIHJ after 24 hrs by twofold dilution assay; format: functional
[5] = system: Proteus mirabilis; test: microbe, parasite or virus in culture; format: functional; settings: GN 2425, 24 h
Description: Antibacterial activity against Proteus mirabilis GN 2425 after 24 hrs by twofold dilution assay

[6] = Drug level in Wistar rat serum at 50 mg/kg, po measured at 1 hr
[7] = system: Escherichia coli; test: Antibacterial activity against Escherichia coli 0111 infected in ICR mouse administered orally 0.5 hr and 6 hrs post infection measured 1 week post challenge; format: functional; settings: Escherichia coli, 0111, po
[8] = Drug level in Wistar rat serum at 50 mg/kg, po measured at 2 hrs
[9] = Drug level in Wistar rat serum at 50 mg/kg, po measured at 4 hrs
[10] = Drug level in Wistar rat serum at 50 mg/kg, po measured at 6 hrs; format: ADME, organism-based; set-up: dose 50 mg/kg, route oral; settings: read-out: Drug uptake
[11] = Drug recovery in Wistar rat urine at 50 mg/kg, po measured over 24 hrs
[12] = Drug level in Wistar rat serum at 50 mg/kg, po measured at 0.5 hr
[13] = system: Proteus mirabilis; test: Antibacterial activity against Proteus mirabilis GN2425 infected in ICR mouse administered orally 0.5 hr and 6 hrs post infection measured 1 week post challenge; format: functional; settings: GN2425, po

CCn1cc(C(=O)O)c(=O)c2ccc3c(c21)CCC3
MIC [1]: 0.39 µg/mL (≈ 1.52 µM) | MIC [2]: 3.13 µg/mL (≈ 12.2 µM) | MIC [3]: 50 µg/mL (≈ 194 µM) | MIC [4]: 1.56 µg/mL (≈ 6.06 µM) | MIC [5]: 6.25 µg/mL (≈ 24.3 µM)

O=C(O)c1cn(OCC2CC2)c2cc3c(cc2c1=O)OCO3
MIC [1]: > 200 µg/mL | MIC [2]: 50 µg/mL (≈ 165 µM) | MIC [3]: > 200 µg/mL | MIC [4]: 50 µg/mL (≈ 165 µM) | MIC [5]: 100 µg/mL (≈ 330 µM)

CC(C)On1cc(C(=O)O)c(=O)c2cc3c(cc21)OCO3
MIC [1]: 3.13 µg/mL (≈ 10.7 µM) | MIC [2]: 25 µg/mL (≈ 85.8 µM) | MIC [3]: 200 µg/mL (≈ 687 µM) | MIC [4]: 6.25 µg/mL (≈ 21.5 µM) | MIC [5]: 50 µg/mL (≈ 172 µM)

COn1cc(C(=O)O)c(=O)c2cc3c(cc21)OCO3 [MILOXACIN]
concentration at 1 h [6]: 27800 ng/mL | MIC [1]: 0.39 µg/mL (≈ 1.48 µM) | ED50 [7]: 7.2 mg/kg | MIC [2]: 6.25 µg/mL (≈ 23.7 µM) | concentration at 2 h [8]: 22300 ng/mL | MIC [3]: 12.5 µg/mL (≈ 47.5 µM) | MIC [4]: 0.39 µg/mL (≈ 1.48 µM) | concentration at 4 h [9]: 19500 ng/mL | concentration at 6 h [10]: 1500 ng/mL | dose excreted at 24 h [11]: 7.5% | concentration at 0.5 h [12]: 11600 ng/mL | ED50 [13]: 30 mg/kg | MIC [5]: 0.39 µg/mL (≈ 1.48 µM)

O=C(O)c1cn(OCc2ccccc2)c2ccc3c(sc(=O)n3Cc3ccccc3)c2c1=O
MIC [1]: > 200 µg/mL | MIC [2]: > 1.56 µg/mL | MIC [3]: > 200 µg/mL | MIC [4]: > 200 µg/mL | MIC [5]: > 200 µg/mL

CCCOn1cc(C(=O)O)c(=O)c2cc3c(cc21)OCO3
MIC [1]: > 200 µg/mL | MIC [2]: 50 µg/mL (≈ 172 µM) | MIC [3]: 100 µg/mL (≈ 343 µM) | MIC [4]: 100 µg/mL (≈ 343 µM) | MIC [5]: 200 µg/mL (≈ 687 µM)

CCOn1cc(C(=O)O)c(=O)c2cc3c(cc21)OCO3
MIC [1]: 1.56 µg/mL (≈ 5.63 µM) | MIC [2]: 25 µg/mL (≈ 90.2 µM) | MIC [3]: 100 µg/mL (≈ 361 µM) | MIC [4]: 3.13 µg/mL (≈ 11.3 µM) | MIC [5]: 50 µg/mL (≈ 180 µM)

COn1cc(C(=O)O)c(=O)c2c3sc(=O)n(C)c3ccc21
concentration at 1 h [6]: 4500 ng/mL | MIC [1]: 0.2 µg/mL (≈ 0.653 µM) | MIC [2]: 6.25 µg/mL (≈ 20.4 µM) | concentration at 2 h [8]: 3700 ng/mL | MIC [3]: 12.5 µg/mL (≈ 40.8 µM) | MIC [4]: 0.2 µg/mL (≈ 0.653 µM) | concentration at 4 h [9]: 1900 ng/mL | dose excreted at 24 h [11]: 1.8% | concentration at 0.5 h [12]: 2900 ng/mL | MIC [5]: 0.39 µg/mL (≈ 1.27 µM)

COn1cc(C(=O)O)c(=O)c2c3c(ccc21)OCOC3
MIC [1]: 12.5 µg/mL (≈ 45.1 µM) | MIC [2]: 25 µg/mL (≈ 90.2 µM) | MIC [3]: > 200 µg/mL | MIC [4]: 12.5 µg/mL (≈ 45.1 µM) | MIC [5]: 200 µg/mL (≈ 721 µM)

C=CCOn1cc(C(=O)O)c(=O)c2c3c(ccc21)OCOC3
MIC [1]: > 200 µg/mL | MIC [2]: > 50 µg/mL | MIC [3]: > 200 µg/mL | MIC [4]: > 200 µg/mL | MIC [5]: > 200 µg/mL

COn1cc(C(=O)O)c(=O)c2c3c(ccc21)OCC3
MIC [1]: 50 µg/mL (≈ 191 µM) | MIC [2]: 50 µg/mL (≈ 191 µM) | MIC [3]: > 200 µg/mL | MIC [4]: 100 µg/mL (≈ 383 µM) | MIC [5]: > 200 µg/mL

COn1cc(C(=O)O)c(=O)c2cc3c(cc21)CCO3
concentration at 1 h [6]: 4700 ng/mL | MIC [1]: 0.2 µg/mL (≈ 0.766 µM) | MIC [2]: 6.25 µg/mL (≈ 23.9 µM) | concentration at 2 h [8]: 4000 ng/mL | MIC [3]: 12.5 µg/mL (≈ 47.9 µM) | MIC [4]: 0.78 µg/mL (≈ 2.99 µM) | concentration at 4 h [9]: 1700 ng/mL | dose excreted at 24 h [11]: 11% | concentration at 0.5 h [12]: 6200 ng/mL | MIC [5]: 0.39 µg/mL (≈ 1.49 µM)

CCn1cc(C(=O)O)c(=O)c2c3c(ccc21)OCOC3
MIC [2]: 3.13 µg/mL (≈ 11.4 µM) | MIC [3]: > 200 µg/mL | MIC [4]: 6.25 µg/mL (≈ 22.7 µM) | MIC [5]: 12.5 µg/mL (≈ 45.4 µM)

CCn1cc(C(=O)O)c(=O)c2c3sc(=O)n(C)c3ccc21 [TIOXACIN]
concentration at 1 h [6]: 360 ng/mL | MIC [1]: 0.2 µg/mL (≈ 0.657 µM) | MIC [2]: 3.13 µg/mL (≈ 10.3 µM) | concentration at 2 h [8]: 320 ng/mL | MIC [3]: > 200 µg/mL | MIC [4]: 0.1 µg/mL (≈ 0.329 µM) | concentration at 4 h [9]: 450 ng/mL | concentration at 6 h [10]: 360 ng/mL | dose excreted at 24 h [11]: 0.3% | concentration at 0.5 h [12]: 300 ng/mL | MIC [5]: 0.39 µg/mL (≈ 1.28 µM)

O=C(O)c1cn(OCCO)c2cc3c(cc2c1=O)OCO3
MIC [1]: > 200 µg/mL | MIC [2]: 100 µg/mL (≈ 341 µM) | MIC [3]: 100 µg/mL (≈ 341 µM) | MIC [4]: 100 µg/mL (≈ 341 µM) | MIC [5]: 100 µg/mL (≈ 341 µM)

C=CCOn1cc(C(=O)O)c(=O)c2c3sc(=O)n(CC=C)c3ccc21
MIC [1]: 200 µg/mL (≈ 558 µM) | MIC [2]: 50 µg/mL (≈ 140 µM) | MIC [3]: > 200 µg/mL | MIC [4]: 100 µg/mL (≈ 279 µM) | MIC [5]: > 200 µg/mL

COn1cc(C(=O)O)c(=O)c2ccc3c(c21)CCC3
MIC [1]: 3.13 µg/mL (≈ 12.1 µM) | MIC [2]: 25 µg/mL (≈ 96.4 µM) | MIC [3]: > 200 µg/mL | MIC [4]: 12.5 µg/mL (≈ 48.2 µM) | MIC [5]: 50 µg/mL (≈ 193 µM)

CCn1cc(C(=O)O)c(=O)c2cc3c(cc21)OCO3 [OXOLINIC ACID]
concentration at 1 h [6]: 1500 ng/mL | MIC [1]: 0.78 µg/mL (≈ 2.99 µM) | ED50 [7]: 20 mg/kg | MIC [2]: 3.13 µg/mL (≈ 12 µM) | concentration at 2 h [8]: 4700 ng/mL | MIC [3]: 6.25 µg/mL (≈ 23.9 µM) | MIC [4]: 0.39 µg/mL (≈ 1.49 µM) | concentration at 4 h [9]: 4800 ng/mL | concentration at 6 h [10]: 2700 ng/mL | dose excreted at 24 h [11]: 2.4% | concentration at 0.5 h [12]: 700 ng/mL | ED50 [13]: 48 mg/kg | MIC [5]: 0.39 µg/mL (≈ 1.49 µM)

C=CCOn1cc(C(=O)O)c(=O)c2cc3c(cc21)OCO3
MIC [1]: 3.13 µg/mL (≈ 10.8 µM) | MIC [2]: 12.5 µg/mL (≈ 43.2 µM) | MIC [3]: 200 µg/mL (≈ 691 µM) | MIC [4]: 6.25 µg/mL (≈ 21.6 µM) | MIC [5]: 50 µg/mL (≈ 173 µM)
